Test results taken from patent US20160067277A1, “USE OF XENON FOR LIMITING TUMOR CELL MIGRATION” (L'Air Liquide, Societe Anonyme pour I'Etude et …, priority 2013, published 2016).

Columns and labels:
Format in all cases: cell-based, human
MDA-MB-231 cells [1] = test: MTT cell survival test; details: 1 h, 3 h, 5 h exposure to 70% xenon, MTT after 24 hours
Method: (§1) ER− and ER+ cancer cells (Estrogen Receptor) of a human adenocarcinoma (breast cancer), namely lines of MDA-MB-231 and MCF7 cells, were deposited on plates coated with collagen, where they adhered. These cell lines are available commercially.
(§2) The plates with the adhering cells were then placed in a sealed chamber, saturated, for 1 h, 3 h and 5 h, with: • either a control atmosphere (control), namely a gas mixture formed from 25% O2, 5% CO2 and 70% N2 (vol %); • or a test atmosphere based on xenon according to the invention, namely a gas mixture formed from 25% O2, 5% CO2 and 70% xenon (vol %).
(§3) Cell survival was determined after 24 hours, using an MTT (for methylthaizolyldiphenyl-tetrazolium bromide) test. This test is a conventional test for determining cellular viability. It is based on detection of living cells only, via the activity of their mitochondrial dehydrogenases, which makes it possible to evaluate cytotoxicity, proliferation and/or cellular activation.

MCF7 cells [2] = test: MTT cell survival test; details: 1 h, 3 h, 5 h exposure to 70% xenon, MTT after 24 hours
Method: as §1, §2, §3

MDA-MB-231 cells [3] = test: Oris cell migration test, fluorescence-labeled cells (RFU); details: for % cell migration relative to the control: MDA-MB-231 (ER-) cells, migration at 24 h, control atmosphere = 100%
Method: as §1, §2
(§4) For its part, cell migration at 24 h was determined after 24 hours, using fluorescence-labeled cells in the context of an Oris™ cell migration test. In this test, the labeled cells migrate into a target zone, where they are then quantified by a fluorescent plate reader for measuring the relative fluorescent units (RFU)).
(§5) More precisely, as already noted, several tests (3 or 4 tests) were conducted with the different gas atmospheres for different exposure times, and the results were expressed in the form of relative fluorescent units (RFU).
(§6) The migration of the cancer cells exposed to the atmosphere containing xenon was calculated as a percentage (%) relative to that of the cells exposed to the control atmosphere, i.e. exposed to an atmosphere without xenon (RFU fixed at 100%), and in the same conditions.
(§7) A two-way t-test for statistical analysis of the difference between the cell lines and the probability values P below 0.05 were considered significant.

MCF7 cells [4] = test: as above; details: for % cell migration relative to the control: MCF7 (ER+) cells, migration at 24 h, control atmosphere = 100%
Method: as §1, §2, §4, §5, §6, §7

[5] = 1 h exposure to 25% O2, 5% CO2, 70% xenon
[6] = 3 h exposure to 25% O2, 5% CO2, 70% xenon
[7] = 5 h exposure to 25% O2, 5% CO2, 70% xenon

## [Xe] [xenon]
MDA-MB-231 cells [1]
  effect on cell survival: does not have a significant effect on cell survival
MCF7 cells [2]
  effect on cell survival: does not have a significant effect on cell survival
MDA-MB-231 cells [3]; ER- MDA-MB-231 cells, starting from 1 hour of exposure, FIG. 1
  effect on cell migration (in words): significantly reduces the migration
MDA-MB-231 cells [3]; [5]
  % cell migration relative to the control: 59 ± 13%
MDA-MB-231 cells [3]; [6]
  % cell migration relative to the control: 64 ± 10%
MDA-MB-231 cells [3]; [7]
  % cell migration relative to the control: 71 ± 9%
MCF7 cells [4]; ER+ MCF7 cells, starting from 1 hour of exposure, FIG. 2
  effect on cell migration (in words): significantly reduces the migration
MCF7 cells [4]; [5]
  % cell migration relative to the control: 58 ± 12%
MCF7 cells [4]; [6]
  % cell migration relative to the control: 65 ± 12%
MCF7 cells [4]; [7]
  % cell migration relative to the control: 65 ± 12%
